From patent publication US12023319B2, “Carboxylic acid aromatic amides” (priority 2016, dated 2024)
pIC50: −log10 of the molar value.

target: T1, human Bradykinin B1 receptor (Homo sapiens, UniProt P46663); test: Calcium flux assay (FLIPR), CHO-K1 cells expressing human Bradykinin B1 receptor, absence of 0.1% BSA (hB1 free IC50); type: cell-based; conditions: absence of 0.1% BSA in assay buffer
T1 construct: host or cells: CHO-K1
T1 sequence (P46663 1-353): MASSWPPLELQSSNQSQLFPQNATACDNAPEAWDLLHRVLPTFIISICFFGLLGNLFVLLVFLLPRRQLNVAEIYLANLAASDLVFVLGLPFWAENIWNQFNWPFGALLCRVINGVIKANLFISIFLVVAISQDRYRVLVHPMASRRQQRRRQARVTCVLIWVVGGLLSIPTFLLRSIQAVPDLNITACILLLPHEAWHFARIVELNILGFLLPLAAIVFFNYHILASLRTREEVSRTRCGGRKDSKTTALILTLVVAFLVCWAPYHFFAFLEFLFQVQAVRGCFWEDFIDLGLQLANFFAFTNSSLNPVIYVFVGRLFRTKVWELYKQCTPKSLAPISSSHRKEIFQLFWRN
Protocol: The potency to inhibit the Bradykinin B1 receptor was determined for the Compound Examples of this invention in a cell-based fluorescent calcium-mobilisation assay. The assay measures the ability of Compound Examples to inhibit Bradykinin B1 receptor agonist-induced increase of intracellular free Ca^2+ in the cell line expressing Bradykinin B1 receptor. Specifically, calcium indicator-loaded cells are pre-incubated in the absence or presence of different concentrations of Compound Examples followed by the stimulation with a selective Bradykinin B1 receptor agonist peptide. The change of the intracellular Ca^2+ concentration is monitored with a fluorescent plate reader FLIPR^TETRA® (Molecular Devices).
Calcium Flux Assays (FLIPR) with Cells Expressing Human Bradykinin B1 Receptor (hB1)
CHO-K1 cell line expressing human Bradykinin B1 receptor is purchased from Euroscreen (Gosselies, Belgium, with reference name hB1-D1). The cells are grown in Nutrient Mixture Ham's F12 (Sigma) containing 10% Foetal bovine serum (Sigma) and 400 μg/mL G418 (Sigma), 5 μg/mL puromycin (Sigma).
The effect of BSA on the potency of endothelin receptor antagonists have been described in the prior art (Wu-Wong, J. R. et al. (1997), JPET 281: 791-798). The teaching can be applied in analogy to testing the potency of Bradykinin B1 receptor antagonist in the FLIPR assays.
For the calcium flux assay, 80% confluent cells are detached from the culture vessels with Versene (Gibco), and seeded into 384-well plates (Cell binding Surface; Corning, NY; #3683) at a density of 15,000 cells per well. Cells are seeded in a volume of 50 μL in medium without antibiotics and incubated overnight in a humidified atmosphere with 5% CO2 at 37° C. […] The calcium indicator loaded cells are incubated at 37° C. for 2 hrs. Extracellular dye is then removed and each well is filled with 45 μL of assay buffer. Cell plates are kept in dark until used. Compound examples are assayed at 8 concentrations in triplicate. Serial 10-fold dilutions in 100% DMSO are made at a 100-times higher concentration than the final concentration, and then diluted 1:10 in assay buffer. 5 μL of each diluted compound is added to the well of cell plates (yielding final concentration with 1% DMSO), and incubated for 30 min at 28° C. before the addition of Bradykinin B1 receptor agonist on the FLIPR instrument.
The addition of agonist 20 μl per well to the assay plate is carried out on the FLIPR instrument while continuously monitoring Ca2+-dependent fluorescence at 538 nm. A peptide antagonist Lys-(Des-Arg-Leu)-Bradykinin (Bachem, Brackley) at 20 µM is used to determine the full inhibition as control.
Peak fluorescence is used to determine the response to agonist obtained at each concentration of Compound Examples by the following equation: % Response=100*(RFU(compound)−RFU(control))/(RFU(DMSO)−RFU(control))
RFU means relative fluorescence units.
Control means full inhibition by the peptide antagonist Lys-(Des-Arg-Leu)-Bradykinin at 20 µM.
The response values are plotted against the logarithm of the compound concentrations. The Compound Examples are tested in triplicates per plate and mean values are plotted in Excel XLfit to determine IC50 values, percentage of maximal inhibition and the Hill slopes.

| pIC50 | Structure (SMILES) |
| --- | --- |
| 6.16 | O=C(O)c1cc(NC(=O)C2(c3cc(F)c(F)cc3F)CC2)ccc1-c1ccc(C(F)(F)F)nc1 [Example 8, 2-[6-(Trifluoromethyl)pyridin-3-yl]-5-({[1-(2,4,5-trifluorophenyl)cyclopropyl]carbonyl}amino)benzoic acid] |
| 6.24 | O=C(O)c1cc(NC(=O)C2(c3ccc(C(F)(F)F)cc3F)CC2)ccc1-c1cnn([C@H]2CCOC2)c1 [Example 84, 5-[({1-[2-Fluoro-4-(trifluoromethyl)phenyl]cyclopropyl}carbonyl)amino]-2-{1-[(3S)-tetrahydrofuran-3-yl]-1H-pyrazol-4-yl}benzoic acid] |
| 7.89 | CCn1cc(-c2c(F)cc(NC(=O)C3(c4ccc(OC(F)(F)F)cc4F)CC3)cc2C(=O)O)cn1 [Example 139, 2-(1-Ethyl-1H-pyrazol-4-yl)-3-fluoro-5-[({1-[2-fluoro-4-(trifluoromethoxy)phenyl]cyclopropyl}carbonyl)amino]benzoic acid] |
| 7.33 | O=C(O)c1cc(NC(=O)C2(c3ccc(Cl)c(F)c3)CC2)ccc1-c1cnn(C2CCC2)c1 [Example 49, 5-({[1-(4-Chloro-3-fluorophenyl)cyclopropyl]carbonyl}amino)-2-(1-cyclobutyl-1H-pyrazol-4-yl)benzoic acid] |
| 6.54 | CCC(F)(F)c1ccc(-c2ccc(NC(=O)C3(c4ccc(OC(F)(F)F)cc4)CC3)cc2C(=O)O)cn1 [Example 22, 2-[6-(1,1-Difluoropropyl)pyridin-3-yl]-5-[({1-[4-(trifluoromethoxy)phenyl]cyclopropyl}carbonyl)amino]benzoic acid] |
| 6.39 | Cc1ccc(C2(C(=O)Nc3ccc(-c4ccc(C(C)(F)F)nc4)c(C(=O)O)c3)CC2)c(F)c1 [Example 30, 2-[6-(1,1-Difluoroethyl)pyridin-3-yl]-5-({[1-(2-fluoro-4-methylphenyl)cyclopropyl]carbonyl}amino)benzoic acid] |
| 7.59 | O=C(O)c1cc(NC(=O)C2(c3ccc(Cl)cc3)CC2)cc(F)c1-c1cnn(C2CCC2)c1 [Example 35, 5-({[1-(4-Chlorophenyl)cyclopropyl]carbonyl}amino)-2-(1-cyclobutyl-1H-pyrazol-4-yl)-3-fluorobenzoic acid] |
| 5.44 | O=C(O)c1cc(NC(=O)C2(c3ccc(C(F)(F)F)cc3F)CC2)ccc1-n1ccc(CC(F)(F)F)n1 [Example 15, 5-[({1-[2-Fluoro-4-(trifluoromethyl)phenyl]cyclopropyl}carbonyl)amino]-2-[3-(2,2,2-trifluoroethyl)-1H-pyrazol-1-yl]benzoic acid] |
| 6.23 | O=C(O)c1cc(NC(=O)C2(c3ccc(OC(F)(F)F)cc3F)CC2)ccc1-n1cc(C2CCC2)cn1 [Example 130, 2-(4-Cyclobutyl-1H-pyrazol-1-yl)-5-[({1-[2-fluoro-4-(trifluoromethoxy)phenyl]cyclopropyl}carbonyl)amino]benzoic acid] |
| 5.62 | Cc1cc(NC(=O)C2(c3ccc(C(F)(F)F)cc3F)CC2)cc(C(=O)O)c1-c1ccc(C(F)(F)F)nc1 [Example 111, 5-[({1-[2-Fluoro-4-(trifluoromethyl)phenyl]cyclopropyl}carbonyl)amino]-3-methyl-2-[6-(trifluoromethyl)pyridin-3-yl]benzoic acid] |
| 7.25 | CC(C)Cn1cc(-c2ccc(NC(=O)C3(c4ccc(Cl)cc4F)CC3)cc2C(=O)O)cn1 [Example 117, 5-({[1-(4-Chloro-2-fluorophenyl)cyclopropyl]carbonyl}amino)-2-(1-isobutyl-1H-pyrazol-4-yl)benzoic acid] |
| 5.89 | CC1(C)CC1(C(=O)Nc1ccc(-c2cnn(C3CCC3)c2)c(C(=O)O)c1)c1ccccc1F (stereo not shown) [Example 64, 2-(1-Cyclobutyl-1H-pyrazol-4-yl)-5-({[1-(2-fluorophenyl)-2,2-dimethylcyclopropyl]carbonyl}amino)benzoic acid] |
| 7.42 | Cc1ccc(C2(C(=O)Nc3cc(F)c(-c4cnn(C(C)C)c4)c(C(=O)O)c3)CC2)c(F)c1 [Example 87, 3-Fluoro-5-({[1-(2-fluoro-4-methylphenyl)cyclopropyl]carbonyl}amino)-2-[1-(propan-2-yl)-1H-pyrazol-4-yl]benzoic acid] |
